Assay [1] deals with Venturia inaequalis. In words: Example A apple scab. Format: in vivo. To be noted: read-out: disease control rating, Ex. A. In outline:
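Acetone solution (6% of final vol.) → suspension at 100 or 20 ppm in water + 250 ppm TREM 014 surfactant; sprayed to run-off on apple seedlings.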

The test system of assay [2] is Cercosporidium personatum. Briefly: Example B Peanut Late Leafspot. The class given is in vivo. Conditions: Nothopassalora personata, read-out: disease control rating, Ex. B. In outline: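 Foliar spray on peanut seedlings, to run-off; test rates 100 or 20 ppm. Formulation: acetone at 6% of final volume, water with 250 ppm polyhydric alcohol ester surfactant.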
The subject of assay [3] is Botrytis cinerea. Briefly: Example C bean grey mold. The class given is in vivo. Conditions: Botrytis cinerea, 24 h, read-out: disease control rating, Ex. C. In outline:
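Broad bean seedlings; foliar spray to run-off. Cmpd 100 or 20 ppm in water + 250 ppm TREM 014, acetone 6% v/v final.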

The test system of assay [4] is Erysiphe graminis f. sp. tritici. Briefly: Example D wheat powdery mildew. To be noted: Blumeria graminis, 144 h, read-out: disease control rating, Ex. D. The class given is in vivo. In outline: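 Spray to run-off on wheat seedlings; test suspension 100 or 20 ppm compound, acetone 6% v/v, 250 ppm polyhydric alcohol ester surfactant in water.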
The test system of assay [5] is Pyricularia oryzae. Briefly: whole plant or invertebrate. The class given is in vivo. To be noted: Pyricularia oryzae, 120 h; for pest or weed control at 100 ppm: read-out: disease control rating, Ex. E, 100 PPM.
Assay [6] concerns Rhizoctonia solani. In words: Example F rice sheath blight. The class given is in vivo. Conditions: Rhizoctonia solani, 144 h, read-out: disease control rating, Ex. F. In outline:
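Spray to run-off on rice seedlings; test suspension 100 or 20 ppm compound in water + 250 ppm TREM 014 surfactant, acetone 6% final volume.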

For assay [7], the system named is Puccinia recondita. Briefly: Example G wheat leaf rust. The class given is in vivo. Conditions: read-out: disease control rating, Ex. G.
In assay [8] the test system is Phytophthora infestans. Briefly: whole plant or invertebrate. Format: in vivo. To be noted: Phytophthora infestans, in Solanum lycopersicum, read-out: disease control rating, Ex. H, 100 PPM.
The subject of assay [9] is Plasmorpara viticola. Briefly: Example I grape downy mildew. To be noted: read-out: disease control rating, Ex. I. Format: in vivo. In outline: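 Compounds were dissolved in acetone (6% of final volume) and suspended at 100 or 20 ppm in purified water with 250 ppm TREM 014 surfactant (polyhydric alcohol esters). Grape seedlings were sprayed with this suspension to run-off.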

Assay [10] relates to Pythium aphanadermatum. In words: Example J cucumber damping off. Format: in vivo. Conditions: Pythium, 336 h; 5 kg/ha; read-out: disease control rating, Ex. J. The method in brief: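 Seeds and soil were inoculated with a mix of sand, cereal and Pythium aphanadermatum mycelium, the fungus responsible for cucumber damping off. They were kept in a growth chamber at 30° C. for 14 days, and disease was then rated to assess control.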

The test system of assay [11] is Fusarium oxysporum f. sp. cucumerinum. In words: Example L cucumber wilt. Format: in vivo. To be noted: 336 h, 5 kg/ha, read-out: disease control rating, Ex. L. As to the method:
[…] Seeds and soil were then inoculated with a mixture of sand, cereal and mycelium of the fungus Fusarium oxysporum f. sp. cucumerinum, causal agent of cucumber wilt, and incubated in a growth chamber at 30° C. for 14 days. Disease ratings were then made.

Assay [12] concerns Candida albicans ATCC 11651. Briefly: In vitro antifungal MIC, microtiter broth dilution. Conditions: for MIC: Candida albicans, ATCC11651, 24 h, read-out: MIC values, C. albicans, 30°, 24 hours. (In general: Dilution methods test growth across graded concentrations, often in twofold steps.)
The test system of assay [13] is Aspergillus fumigatus ATCC 28214. In words: In vitro antifungal MIC, microtiter broth dilution. To be noted: Aspergillus fumigatus, ATCC28214, 24 h, read-out: MIC values, A. fumigatus, 30°, 24 hours.
Protocol: In vitro activity (Table 5) is expressed in terms of the minimal inhibitory concentration (MIC) of the test compound which inhibits the growth of yeasts and fungi.
The target organisms, Candida albicans ATCC 11651 and Aspergillus fumigatus ATCC 28214 are standardized, [V. Bezjak, J. Clinical Micro., 21 509-512 (1984)], to a concentration of 10^7 organisms/ml and maintained at -70° until use. Test compounds are solubilized in dimethyl sulfoxide (DMSO) and diluted in Eagle's Minimum Essential Medium (EMEM) broth to achieve a final concentration of 200 μg/ml. Stock solutions of standard antifungal agents are stored at -70° and diluted in EMEM as required.
The in vitro assay utilizes a microtiter broth dilution technique [L. Polonelli and G. Morace, Mycopathologia, 86, 21-28 (1984)] and C. […] The appropriate wells are inoculated with the required organism (C. albicans at 1×10^4 organisms/ml and A. fumigatus at 5×10^5 organisms/ml) and the assay incubated at 30° for 24 hours.
In assay [14] the test system is Candida albicans ATCC 11651. In words: In vivo systemic Candida infection in mice, primary assay. To be noted: Candida albicans, 150 mg/kg per day, read-out: % Survival. On the set-up: species or system Candida albicans; CF-1 female mice. In outline:
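CF-1 female mice (20 g, 10 per group) were infected IV with 0.2 ml of 1×10^7/ml C. albicans ATCC 11651, then given test compound subcutaneously at 50 or 150 mg/kg/day at 1 and 6 h post-infection and once daily for three more days. Survival was followed for 21 days against infected untreated mice; ≥70% protection at 14 days was scored active.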

The results in this text go back to patent US4965280A, “Antifungal carbinols” (E. I. Du Pont de Nemours and Company, priority 1989, dated 1990).

Structures are written as SMILES. ≈ marks a conversion by molar mass, not a printed value. Read-outs that look alike come from different tables or passages of the source.

One may read the MIC as the lowest concentration that inhibits growth of the organism. Turning to `C=C(c1ccc(F)cc1)C(O)(Cn1ncnc1I)c1ccccc1F` (stereo not drawn) [Example 1377], the pest or weed control at 100 ppm in [1] is 100%; in [2] it was 100%; in assay [3], 96%; in assay [4], 92%; in assay [5] it was 58%; in assay [6], 100%. Also, the pest or weed control at 100 ppm in [7] amounted to 100%; in assay [8], 0%; in assay [9] it was 44%. For the same compound, the pest or weed control at 5000 g/ha in [10] and in assay [11] was 0% in each case. Moreover, the MIC in [12] worked out at 1.6 µg/mL (≈ 3.53 µM); in assay [13], 100 µg/mL (≈ 221 µM).
Consider `C=C(c1ccccc1)[C@](O)(Cn1cncn1)c1ccc(F)cc1` [Example 1276], for which the responders at 150 mg/kg in assay [14] (ATCC11651, 168 h, day 7) was determined as 100%; in assay [14] (ATCC11651, 336 h, day 14), 70%; in [14] (ATCC11651, 504 h, day 21), 50%. For the same compound, the pest or weed control at 20 ppm turned out to be 93% in assay [1] (20 PPM); 100% in [2] (20 PPM); 86% in [3] (20 PPM); 100% in assay [4] (20 PPM); 1% in [5] (read-out: disease control rating, Ex. E, 20 PPM); 52% in assay [6] (20 PPM). For the same compound, the pest or weed control at 20 ppm in assay [7] (20 PPM) is 100%. In addition, the pest or weed control at 100 ppm stood at 100% in assay [1]; 96% in assay [3]; 100% in [4]; 1% in assay [5]; 97% in assay [6]; 100% in [7]. For the same compound, the pest or weed control at 100 ppm in assay [8] and in assay [9] was 0% each time. Besides, the pest or weed control at 5000 g/ha in assay [10] and in assay [11] was 0% throughout. Also, the values for the MIC in [12] and in assay [13] were 0.03 µg/mL (≈ 0.097 µM) and 1.6 µg/mL (≈ 5.17 µM), respectively.
As to `OC(Cn1cncn1)(c1ccc(F)cc1)C1(c2ccccc2)CO1` (stereo not drawn) [Example 1527], the responders at 150 mg/kg is 100% in assay [14] (ATCC11651, 168 h, day 7); 70% in assay [14] (ATCC11651, 336 h, day 14); 20% in assay [14] (ATCC11651, 504 h, day 21). Moreover, the pest or weed control at 100 ppm amounted to 0% in assay [1]; 100% in [2]; 93% in assay [3]; 100% in assay [4]; 35% in assay [6]; 100% in [7]. In addition, the pest or weed control at 100 ppm in assay [8] and in [9] was 0% throughout. Further, the pest or weed control at 5000 g/ha in assay [10] and in [11] was 0% each time. For the same compound, the minimum inhibitory concentration (MIC) amounted to 0.4 µg/mL (≈ 1.23 µM) in assay [12] and 6.3 µg/mL (≈ 19.4 µM) in [13].
Regarding `C=C(c1ccc(F)cc1)C(O)(Cn1cncn1)c1ccc(Cl)cc1Cl` (stereo not drawn) [Example 2], the responders at 150 mg/kg in assay [14] (ATCC11651, 168 h, day 7) was determined as 100%; in assay [14] (ATCC11651, 336 h, day 14), 100%; in assay [14] (ATCC11651, 504 h, day 21), 80%. In addition, the pest or weed control at 100 ppm in [1] worked out at 62%; in assay [2] it was 100%; in assay [3], 93%; in [4] it was 98%; in [5] it was 95%; in assay [6], 100%. The pest or weed control at 100 ppm is 100% in assay [7], 0% in [8] and 99% in [9]. The pest or weed control at 5000 g/ha in assay [10] and in assay [11] was 0% in each case. Also, the MIC was at most 0.4 µg/mL in assay [12] and 1.6 µg/mL (≈ 4.23 µM) in [13].
As to `C=C(c1ccc(F)cc1)C(O)(Cn1cncn1)c1ccc(F)cc1` (stereo not drawn) [Example 1, 2,3-Bis(4-fluorophenyl)-1-(1H-1,2,4-triazol-1-yl)-3-buten-2-ol], the responders at 150 mg/kg in assay [14] (ATCC11651, 168 h, day 7) is 100%; in [14] (ATCC11651, 336 h, day 14) it was 100%; in assay [14] (ATCC11651, 504 h, day 21) it was 80%. The pest or weed control at 100 ppm stood at 62% in [1]; 100% in assay [2]; 81% in assay [3]; 98% in assay [4]; 90% in [5]; 97% in assay [6]. The pest or weed control at 100 ppm is 100% in [7], 0% in [8] and 12% in [9]. Also, the pest or weed control at 5000 g/ha in [10] and in [11] was 0% throughout. Also, the “MIC values, C. albicans” value in assay [12] (30°, 24 hours) is at most 0.01 µg/mL. Besides, the MIC in assay [13] stood at 6.3 µg/mL (≈ 19.2 µM).
Consider `C=C(c1ccccc1)C(O)(Cn1cncn1)c1ccc(F)cc1` (stereo not drawn) [Example 49, 2-(4-Fluorophenyl)-3-phenyl-1-(1H-1,2,4-triazol-1-yl)-3-buten-2-ol], for which the responders at 150 mg/kg worked out at 100% in assay [14] (ATCC11651, 168 h, day 7); 90% in [14] (ATCC11651, 336 h, day 14); 60% in assay [14] (ATCC11651, 504 h, day 21). Further, the pest or weed control at 100 ppm in [1] stood at 89%; in assay [2], 100%; in assay [3], 62%; in [4] it was 100%; in assay [5], 76%; in [6], 96%. Besides, the pest or weed control at 100 ppm came out at 100% in [7], 0% in assay [8] and 0% in [9]. Also, the pest or weed control at 5000 g/ha in assay [10] and in assay [11] was 0% in each case. Moreover, the MIC in [12] came out at 0.03 µg/mL (≈ 0.097 µM); in assay [13], 12.5 µg/mL (≈ 40.4 µM).
Consider `C=C(c1cccc(F)c1)C(O)(Cn1cncn1)c1ccc(F)cc1` (stereo not drawn) [Example 15], for which the responders at 150 mg/kg in assay [14] (ATCC11651, 168 h, day 7) was 100%; in [14] (ATCC11651, 336 h, day 14) it was 90%; in assay [14] (ATCC11651, 504 h, day 21), 60%. The pest or weed control at 100 ppm was 100% in [1]; 100% in assay [2]; 99% in assay [3]; 100% in assay [4]; 1% in [5]; 93% in assay [6]. For the same compound, the results for the pest or weed control at 100 ppm in assay [7], in assay [8] and in assay [9] were 100%, 26% and 0%, respectively. Also, the pest or weed control at 5000 g/ha in [10] and in assay [11] was 0% in each case. Besides, the MIC is 0.1 µg/mL (≈ 0.305 µM) in assay [12] and 50 µg/mL (≈ 153 µM) in assay [13].
